This note sets out measurements from patent publication US11254640B2, “N-substituted indoles and other heterocycles for treating brain disorders” (The Regents of the University of California, priority 2019, dated 2022).

pEC50: −log10 of the molar value. Read-outs that look alike come from different tables or passages of the source.

A word on the pEC50: it is the negative decadic logarithm of the EC50, by convention in mol/L.

Assay type in all cases: cell-based
Test [1] addresses T1, 5HT2A (Homo sapiens, UniProt P28223).
T1 construct: expressed in transfected cells
Nature of the test: Calcium flux assay (Calcium secondary messenger pathway). The note with it: agonist mode. Summed up:
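Gq-coupled calcium mobilization in cells stably expressing 5HT2A, loaded 30–60 min at 37 °C with calcium-sensitive dye in HBSS/20 mM Hepes with 2.5 mM probenecid. Compound added 5 s into a 2-min FLIPR Tetra fluorescence read at room temperature; % activity relative to vehicle and maximal control-ligand RFU.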
In general terms: A change in cytosolic calcium serves as a functional read-out for many receptors and channels.

In test [2] the test system is 5HT2A sensor. Briefly: 5HT2A sensor assay, antagonist mode (sLight1.3s HEK293T stable line). The note with it: relative to 5-HT at 100 nM; for 5HT2A Antagonist mean @ 100 nM (%): 100 nM compound; for 5HT2A Antagonist mean @ 10 μM (%): 10 μM compound; for 5HT2A Antagonist mean @ 100 μM (%): 100 μM compound. Summed up: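 Inactivation score is computed from membrane dFF as (dFF(compound+5HT)−dFF(5HT))/dFF(5HT), with HBSS-only fluorescence as Fapo. Final concentrations: 5-HT 100 nM added first, then compound at 100 nM, 10 μM or 100 μM in 0.1% DMSO. Triplicates; FITC imaging, 5 fields per well.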

In test [3] the test system is rat cortical neurons. Nature of the test: Neurite outgrowth assay. The note with it: Cortical neurone, 1 hour treatment at DIV 4, analysed DIV 7, fold vs DMSO control. The procedure, abridged:
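Embryonic day 18 rat cortical neurons, 20,000 cells/well in Neurobasal/B27, were exposed at DIV 4 to 10 μM compound for 1 hour, then washed out. At DIV 7, β-III-tubulin immunostaining and automated imaging gave neurite length, branch points, root and extremity counts, reported as fold-change versus DMSO; triplicates.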

Test [4] deals with 5HT2A sensor. Nature of the test: 5HT2A sensor assay, agonist mode (sLight1.3s HEK293T stable line). The conditions noted are these: percent relative to 5-HT at 100 uM; for 5HT2A Agonist mean @ 100 nM (%): 100 nM compound; for 5HT2A Agonist mean @ 10 μM (%): 10 μM compound; for 5HT2A Agonist mean @ 100 μM (%): 100 μM compound. The procedure, abridged:
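Agonist mode in HEK293T cells stably expressing the sLight1.3 5HT2A sensor, washed into HBSS; compounds at final 100 μM, 10 μM and 100 nM (0.1% DMSO), triplicate wells. Membrane fluorescence (ex 460, em 512-542 nm) imaged before and after addition; dFF=(Fsat−Fapo)/Fapo, expressed as percent activation (DMSO=0, 5HT=100).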

The mark [5] stands for this setting: read-out: Neurite Average Length @ 10 μM.
Setting [6] is: read-out: Neurite Branch Points: @ 10 μM.

T1 sequence (P28223 whole entry): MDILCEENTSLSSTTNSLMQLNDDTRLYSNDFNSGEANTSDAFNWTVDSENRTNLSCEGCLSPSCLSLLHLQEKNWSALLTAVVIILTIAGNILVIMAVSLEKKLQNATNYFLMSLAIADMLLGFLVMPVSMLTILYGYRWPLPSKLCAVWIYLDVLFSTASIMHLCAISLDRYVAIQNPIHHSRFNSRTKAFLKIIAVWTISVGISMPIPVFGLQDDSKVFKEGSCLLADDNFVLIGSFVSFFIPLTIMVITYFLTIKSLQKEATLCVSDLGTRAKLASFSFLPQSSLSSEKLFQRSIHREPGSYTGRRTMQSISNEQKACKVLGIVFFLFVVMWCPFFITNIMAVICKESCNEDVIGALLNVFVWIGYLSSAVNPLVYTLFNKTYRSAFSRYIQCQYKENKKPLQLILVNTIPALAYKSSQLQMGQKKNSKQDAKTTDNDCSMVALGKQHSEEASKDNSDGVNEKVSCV

On to `C[C@H](Cn1ccc2c(F)c(F)ccc21)N(C)C` [Example 67, (R)-1-(4,5-difluoro-1H-indol-1-yl)-N,N-dimethylpropan-2-amine], for which the pEC50 in test [1] was below 5.00. Moreover, in test [2], the “5HT2A Antagonist mean @ 100 nM (%)” value is recorded as “A (inhibits 5HT response by >100%)”, the “5HT2A Antagonist mean @ 10 μM (%)” value was “A (inhibits 5HT response by >100%)” and the “5HT2A Antagonist mean @ 100 μM (%)” value is listed as “A (inhibits 5HT response by >100%)”. Besides, the fold induction at 10 µM in test [3] (setting [5]) lay in the range of 1.5 to 3. In addition, the fold induction at 10 µM in test [3] (setting [6]) is above 3. Moreover, in test [4], the “5HT2A Agonist mean @ 100 nM (%)” value is given as “B (does not activate 5HT2A sensor assay in agonist mode)”, the “5HT2A Agonist mean @ 10 μM (%)” value is on record as “B (does not activate 5HT2A sensor assay in agonist mode)” and the “5HT2A Agonist mean @ 100 μM (%)” value was “B (does not activate 5HT2A sensor assay in agonist mode)”.
For `C[C@H](Cn1ccc2cc(F)c(F)cc21)N(C)C` [Example 68, (R)-1-(5,6-difluoro-1H-indol-1-yl)-N,N-dimethylpropan-2-amine], the negative-log EC50 (pEC50) in test [1] was below 5.00. Also, in test [2], the “5HT2A Antagonist mean @ 100 nM (%)” value is listed as “B (inhibits 5HT response by 75% to 100%)”, the “5HT2A Antagonist mean @ 10 μM (%)” value is “A (inhibits 5HT response by >100%)” and the “5HT2A Antagonist mean @ 100 μM (%)” value is reported as “A (inhibits 5HT response by >100%)”. In addition, the fold induction at 10 µM in test [3] (setting [5]) is 1.5 to 3. For the same compound, in test [3] (setting [6]), the fold induction at 10 µM was above 3. Further, in test [4], the “5HT2A Agonist mean @ 100 nM (%)” value was “B (does not activate 5HT2A sensor assay in agonist mode)”, the “5HT2A Agonist mean @ 10 μM (%)” value is on record as “B (does not activate 5HT2A sensor assay in agonist mode)” and the “5HT2A Agonist mean @ 100 μM (%)” value is listed as “A (activates 5HT2A sensor assay in agonist mode)”.
As to `C[C@H](Cn1ccc2cc(F)cc(F)c21)N(C)C` [Example 69, (R)-1-(5,7-difluoro-1H-indol-1-yl)-N,N-dimethylpropan-2-amine], in test [1], the pEC50 is below 5.00. Moreover, in test [2], the “5HT2A Antagonist mean @ 100 nM (%)” value is given as “B (inhibits 5HT response by 75% to 100%)”, the “5HT2A Antagonist mean @ 10 μM (%)” value is recorded as “B (inhibits 5HT response by 75% to 100%)” and the “5HT2A Antagonist mean @ 100 μM (%)” value is listed as “B (inhibits 5HT response by 75% to 100%)”. For the same compound, the fold induction at 10 µM in test [3] (setting [5]) was in the range of 1.5 to 3. Further, in test [3] (setting [6]), the fold induction at 10 µM was above 3. In test [4], the “5HT2A Agonist mean @ 100 nM (%)” value is “B (does not activate 5HT2A sensor assay in agonist mode)”, the “5HT2A Agonist mean @ 10 μM (%)” value is reported as “B (does not activate 5HT2A sensor assay in agonist mode)” and the “5HT2A Agonist mean @ 100 μM (%)” value is on record as “A (activates 5HT2A sensor assay in agonist mode)”.
As for `COc1cc2c(ccn2C[C@@H](C)N(C)C)cc1F` [Example 70, (R)-1-(5-fluoro-6-methoxy-1H-indol-1-yl)-N,N-dimethylpropan-2-amine], the pEC50 in test [1] was above 5.00. Further, in test [2], the “5HT2A Antagonist mean @ 100 nM (%)” value is given as “B (inhibits 5HT response by 75% to 100%)”, the “5HT2A Antagonist mean @ 10 μM (%)” value is recorded as “B (inhibits 5HT response by 75% to 100%)” and the “5HT2A Antagonist mean @ 100 μM (%)” value is recorded as “A (inhibits 5HT response by >100%)”. For the same compound, the fold induction at 10 µM in test [3] (setting [5]) lay in the range of 1.5 to 3. In test [3] (setting [6]), the fold induction at 10 µM lay within 1.5 to 3. For the same compound, in test [4], the “5HT2A Agonist mean @ 100 nM (%)” value is “B (does not activate 5HT2A sensor assay in agonist mode)”, the “5HT2A Agonist mean @ 10 μM (%)” value is reported as “B (does not activate 5HT2A sensor assay in agonist mode)” and the “5HT2A Agonist mean @ 100 μM (%)” value is given as “B (does not activate 5HT2A sensor assay in agonist mode)”.
Take `Cc1cc2cc(F)ccc2n1C[C@@H](C)N(C)C` [Example 73, (R)-1-(5-fluoro-2-methyl-1H-indol-1-yl)-N,N-dimethylpropan-2-amine]: the pEC50 in test [1] was below 5.00. In addition, in test [2], the “5HT2A Antagonist mean @ 100 nM (%)” value is recorded as “B (inhibits 5HT response by 75% to 100%)”, the “5HT2A Antagonist mean @ 10 μM (%)” value is on record as “B (inhibits 5HT response by 75% to 100%)” and the “5HT2A Antagonist mean @ 100 μM (%)” value was “A (inhibits 5HT response by >100%)”. The fold induction at 10 µM in test [3] (setting [5]) is 1.5 to 3. Further, the fold induction at 10 µM in test [3] (setting [6]) was in the range of 1.5 to 3. In test [4], the “5HT2A Agonist mean @ 100 nM (%)” value is “B (does not activate 5HT2A sensor assay in agonist mode)”, the “5HT2A Agonist mean @ 10 μM (%)” value is “B (does not activate 5HT2A sensor assay in agonist mode)” and the “5HT2A Agonist mean @ 100 μM (%)” value was “A (activates 5HT2A sensor assay in agonist mode)”.
